Experimental data published in patent EP0807624B1, “RETINOIC ACID DERIVATIVES” (THE SALK INSTITUTE FOR BIOLOGICAL STUDIES, priority 1991, dated 1993).

Legend:
RXR-α = assay: Cotransfection assay in CV-1 cells; assay type: cell-based, human; details: RXRα; maximal response relative to retinoic acid at 10^-5 M
RXR-β = biological target: T1, RXR-β (Mus musculus, UniProt P28704); assay: Cotransfection assay in CV-1 cells; assay type: cell-based; details: RXRβ; maximal response relative to retinoic acid at 10^-5 M
T1 sequence (P28704 1-520): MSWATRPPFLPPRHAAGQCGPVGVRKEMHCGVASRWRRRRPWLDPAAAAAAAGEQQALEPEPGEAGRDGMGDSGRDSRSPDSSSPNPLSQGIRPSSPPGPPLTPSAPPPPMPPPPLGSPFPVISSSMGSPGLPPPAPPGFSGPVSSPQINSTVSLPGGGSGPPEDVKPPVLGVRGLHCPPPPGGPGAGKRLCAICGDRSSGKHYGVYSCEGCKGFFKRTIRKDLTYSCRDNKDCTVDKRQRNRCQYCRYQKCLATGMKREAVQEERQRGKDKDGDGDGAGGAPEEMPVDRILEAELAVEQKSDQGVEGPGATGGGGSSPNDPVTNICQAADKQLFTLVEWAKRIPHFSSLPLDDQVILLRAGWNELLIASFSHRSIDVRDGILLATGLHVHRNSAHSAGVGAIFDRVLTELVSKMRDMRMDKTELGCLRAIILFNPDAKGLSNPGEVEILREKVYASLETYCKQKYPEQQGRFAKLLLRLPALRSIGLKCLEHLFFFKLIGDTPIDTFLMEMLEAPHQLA

RXR-γ = biological target: T2, RXR-γ (Mus musculus, UniProt P28705); assay: Cotransfection assay in CV-1 cells; assay type: cell-based; details: RXRγ; maximal response relative to retinoic acid at 10^-5 M
T2 sequence (P28705 1-463): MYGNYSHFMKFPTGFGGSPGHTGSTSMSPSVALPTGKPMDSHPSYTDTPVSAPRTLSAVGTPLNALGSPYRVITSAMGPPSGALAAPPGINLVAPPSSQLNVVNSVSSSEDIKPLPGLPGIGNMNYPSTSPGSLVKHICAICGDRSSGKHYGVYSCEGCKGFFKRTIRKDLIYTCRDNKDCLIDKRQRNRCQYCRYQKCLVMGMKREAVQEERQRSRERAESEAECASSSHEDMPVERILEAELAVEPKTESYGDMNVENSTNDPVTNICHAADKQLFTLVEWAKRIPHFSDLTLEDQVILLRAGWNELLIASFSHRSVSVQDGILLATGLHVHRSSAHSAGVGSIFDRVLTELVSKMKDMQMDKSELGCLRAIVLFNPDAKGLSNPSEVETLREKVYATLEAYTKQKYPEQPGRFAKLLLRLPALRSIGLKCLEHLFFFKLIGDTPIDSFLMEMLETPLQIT

HL60R cells = assay: Differentiation of HL60R cells (NBT); assay type: cell-based; details: concentrations up to 10 µM
[1] = system: human primary metastatic melanoma cell line c81-46c; assay: In vitro proliferation of melanoma cell line; assay type: cell-based; details: read-out: % Growth inhibition; for inhibition at 0.01 µM: 0.01 µM added; for inhibition at 1 µM: 1 µM added
HL60 cells = assay: cells; details: Homo sapiens, HL-60, 144 h, read-out: EC-50 for differentiation, as determined by NBT
[2] = system: normal human epidermal keratinocytes (NHEK534 cell line); assay: cells; details: Keratinocyte, read-out: EC50 for inhibition of differentiation
[3] = system: murine melanoma cell line Clone M3; assay: In vitro proliferation of melanoma cell line; details: Mus musculus, read-out: % Growth inhibition
RAR-α = assay: Cotransfection assay in CV-1 cells; assay type: cell-based, human; details: RARα; maximal response relative to retinoic acid at 10^-5 M
RAR-β = assay: Cotransfection assay in CV-1 cells; assay type: cell-based, human; details: RARβ; maximal response relative to retinoic acid at 10^-5 M
RAR-γ = assay: Cotransfection assay in CV-1 cells; assay type: cell-based, human; details: RARγ; maximal response relative to retinoic acid at 10^-5 M

SMILES	Efficacy (RXR-α) [%]	Efficacy (RXR-β) [%]	Efficacy (RXR-γ) [%]	differentiation (NBT) of HL60R cells (HL60R cells)	inhibition at 0.01 µM [1] [%]	inhibition at 1 µM [1] [%]	EC50 (HL60 cells) [nM]	EC50 [2] [nM]	inhibition at 0.01 µM [3] [%]	inhibition at 1 µM [3] [%]	Efficacy (RAR-α) [%]	Efficacy (RAR-β) [%]	Efficacy (RAR-γ) [%]
CC1=C(/C=C/C(C)=C\C=C\C(C)=C\C(=O)O)C(C)(C)CCC1=O [4-keto-9-cis-retinoic acid]	104	105	133	–	–	–	–	–	–	–	–	–	–
CC1=C(/C=C/C(C)=C/C=C/C(C)=C/C(=O)O)C(C)(C)CCC1 [all-trans-retinoic acid]	–	–	–	resistant to differentiation	-17	-44	2000	20 ± 2.8	–	–	–	–	–
CC1=C(/C=C/C(C)=C\C=C\C(C)=C\C(=O)O)C(C)(C)CCC1 [9-cis-retinoic acid]	–	–	–	–	-28	-45	–	20 ± 2.8	-49	-85	–	–	–
CC1=C(/C=C/C(=C\C=C\C(C)=C\C(=O)O)c2ccccc2)C(C)(C)CCC1 [9-phenyl-9-cis-retinoic acid]	76	88	77	–	–	–	–	–	–	–	<2	39	59
CC1=C(/C=C/C(C)=C\C=C\C(C)=C\C(=O)O)C(C)(C)CCC1O (stereo not drawn) [4-hydroxy-9-cis-retinoic acid]	–	143	115	–	–	–	–	–	–	–	65	71	81
